Reference: US8658666B2, “Substituted imidazoquinolines and imidazonaphthyridines” (3M Innovative Properties Company, priority 2005, dated 2014)

Compound	melting point
COCc1nc2c(N)nc3cc(CCC(=O)N4CCS(=O)(=O)CC4)ccc3c2n1CC(C)(C)O [Example 107, 1-[4-Amino-7-[3-(1,1-dioxidothiomorpholin-4-yl)-3-oxopropyl]-2-(methoxymethyl)-1H-imidazo[4,5-c]quinolin-1-yl]-2-methylpropan-2-ol]	190 to 192 °C
COCc1nc2c(N)nc3cc(CCC(=O)N(C)C)ccc3c2n1CC(C)(C)O [Example 108, 3-[4-Amino-1-(2-hydroxy-2-methylpropyl)-2-(methoxymethyl)-1H-imidazo[4,5-c]quinolin-7-yl]-N,N-dimethylpropanamide]	142 to 145 °C
COCc1nc2c(N)nc3cc(CCCNS(C)(=O)=O)ccc3c2n1CC(C)(C)O [Example 109, N-{3-[4-Amino-1-(2-hydroxy-2-methylpropyl)-2-(methoxymethyl)-1H-imidazo[4,5-c]quinolin-7-yl]propyl}methanesulfonamide]	205 to 207 °C
COCc1nc2c(N)nc3cc(CCC#N)ccc3c2n1CC(C)(C)O [Example 110, 3-[4-Amino-1-(2-hydroxy-2-methylpropyl)-2-(methoxymethyl)-1H-imidazo[4,5-c]quinolin-7-yl]propanenitrile]	191 to 193 °C
CN(C)C(=O)CCc1ccc2c(c1)nc(N)c1nc(CO)n(CC(C)(C)O)c12 [Example 111, 3-[4-Amino-2-(hydroxymethyl)-1-(2-hydroxy-2-methylpropyl)-1H-imidazo[4,5-c]quinolin-7-yl]-N,N-dimethylpropanamide]	228 to 230 °C
CC(C)(O)Cn1c(CO)nc2c(N)nc3cc(CCC(=O)N4CCOCC4)ccc3c21 [Example 112, 1-[4-Amino-2-(hydroxymethyl)-7-(3-morpholin-4-yl-3-oxopropyl)-1H-imidazo[4,5-c]quinolin-1-yl]-2-methylpropan-2-ol]	223 to 225 °C
COCc1nc2c(N)nc3cc(CCC(N)=O)ccc3c2n1CC(C)(C)O [Example 113, 3-[4-Amino-1-(2-hydroxy-2-methylpropyl)-2-(methoxymethyl)-1H-imidazo[4,5-c]quinolin-7-yl]propanamide]	228 to 230 °C
CC(C)(O)Cn1c(CO)nc2c(N)nc3cc(CCCNS(C)(=O)=O)ccc3c21 [Example 116, N-{3-[4-Amino-2-(hydroxymethyl)-1-(2-hydroxy-2-methylpropyl)-1H-imidazo[4,5-c]quinolin-7-yl]propyl}methanesulfonamide]	202 to 205 °C
CCOCc1nc2c(N)nc3ccc(NC(=O)C(C)C)cc3c2n1CC(C)(C)O [Example 117, N-[4-Amino-2-(ethoxymethyl)-1-(2-hydroxy-2-methylpropyl)-1H-imidazo[4,5-c]quinolin-8-yl]-2-methylpropanamide]	259 to 261 °C
CCc1nc2c(N)nc3cc(CCNS(C)(=O)=O)ccc3c2n1CC(C)(C)O [Example 118, N-{2-[4-Amino-2-ethyl-1-(2-hydroxy-2-methylpropyl)-1H-imidazo[4,5-c]quinolin-7-yl]ethyl}methanesulfonamide]	149 to 152 °C
CCc1nc2c(N)nc3cc(CCS(C)(=O)=O)ccc3c2n1CC1CCOCC1 [Example 120]	246.5 to 249 °C
CCc1nc2c(N)nc3cc(CCC#N)ccc3c2n1CC1CCOCC1 [Example 121, 3-[4-Amino-2-ethyl-1-(tetrahydro-2H-pyran-4-ylmethyl)-1H-imidazo[4,5-c]quinolin-7-yl]propanenitrile]	273 to 275 °C
CCc1nc2c(N)nc3cc(CCC(N)=O)ccc3c2n1CC1CCOCC1 [Example 122, 3-[4-Amino-2-ethyl-1-(tetrahydro-2H-pyran-4-ylmethyl)-1H-imidazo[4,5-c]quinolin-7-yl]propanamide]	197 to 199 °C
CCc1nc2c(N)nc3cc(CCCN)ccc3c2n1CC1CCOCC1 [Example 123, 7-(3-Aminopropyl)-2-ethyl-1-(tetrahydro-2H-pyran-4-ylmethyl)-1H-imidazo[4,5-c]quinolin-4-amine]	217 to 220 °C

Other lines, results leading:

melting point	Compound
168 to 170 °C	CCc1nc2c(N)nc3cc(CCCNS(C)(=O)=O)ccc3c2n1CC1CCOCC1 [Example 124, N-{3-[4-Amino-2-ethyl-1-(tetrahydro-2H-pyran-4-ylmethyl)-1H-imidazo[4,5-c]quinolin-7-yl]propyl}methanesulfonamide]
209 to 211 °C	CCc1nc2c(N)nc3cc(CCCNC(C)=O)ccc3c2n1CC1CCOCC1 [Example 125, N-{3-[4-amino-2-ethyl-1-(tetrahydro-2H-pyran-4-ylmethyl)-1H-imidazo[4,5-c]quinolin-7-yl]propyl}acetamide]
213 to 216 °C	CCc1nc2c(N)nc3cc(CCCNC(=O)NC(C)C)ccc3c2n1CC1CCOCC1 [Example 126, N-{3-[4-amino-2-ethyl-1-(tetrahydro-2H-pyran-4-ylmethyl)-1H-imidazo[4,5-c]quinolin-7-yl]propyl}-N′-isopropylurea]
125 to 126 °C	COc1cccc(CNCc2ccc3nc(N)c4ncn(CC(C)C)c4c3c2)c1 [Example 127, 1-Isobutyl-8-{[(3-methoxybenzyl)amino]methyl}-1H-imidazo[4,5-c]quinolin-4-amine]
> 260 °C	CCc1nc2c(N)nc3cc(/C=C/C(=O)N(C)C)ccc3c2n1CC1CCOCC1 [Example 128, (2E)-3-[4-Amino-2-ethyl-1-(tetrahydro-2H-pyran-4-ylmethyl)-1H-imidazo[4,5-c]quinolin-7-yl]-N,N-dimethylprop-2-enamide]
219 to 220 °C	CCc1nc2c(N)nc3cc(CCC(=O)N(C)C)ccc3c2n1CC1CCOCC1 [Example 129, 3-[4-Amino-2-ethyl-1-(tetrahydro-2H-pyran-4-ylmethyl)-1H-imidazo[4,5-c]quinolin-7-yl]-N,N-dimethylpropanamide]
> 260 °C	CCc1nc2c(N)nc3cc(/C=C/C(=O)N4CCOCC4)ccc3c2n1CC1CCOCC1 [Example 130, 2-Ethyl-7-[(1E)-3-morpholin-4-yl-3-oxoprop-1-enyl]-1-(tetrahydro-2H-pyran-4-ylmethyl)-1H-imidazo[4,5-c]quinolin-4-amine]
209 to 210 °C	CCOC(=O)/C=C/c1ccc2c(c1)nc(N)c1nc(CC)n(CC3CCOCC3)c12 [Example 131, Ethyl (2E)-3-[4-amino-2-ethyl-1-(tetrahydro-2H-pyran-4-ylmethyl)-1H-imidazo[4,5-c]quinolin-7-yl]prop-2-enoate]
172 to 173 °C	CCOC(=O)CCc1ccc2c(c1)nc(N)c1nc(CC)n(CC3CCOCC3)c12 [Example 132, Ethyl 3-[4-amino-2-ethyl-1-(tetrahydro-2H-pyran-4-ylmethyl)-1H-imidazo[4,5-c]quinolin-7-yl]propanoate]
203 to 205 °C	CCOCc1nc2c(N)nc3cc(C=O)ccc3c2n1CC(C)(C)O [Example 133, 4-Amino-2-(ethoxymethyl)-1-(2-hydroxy-2-methylpropyl)-1H-imidazo[4,5-c]quinoline-7-carbaldehyde]
177 to 178 °C	CCOCc1nc2c(N)nc3cc(CCCO)ccc3c2n1CC(C)(C)O [Example 134, 3-[4-Amino-2-(ethoxymethyl)-1-(2-hydroxy-2-methylpropyl)-1H-imidazo[4,5-c]quinolin-7-yl]propan-1-ol]
132 to 133 °C	CCOCc1nc2c(N)nc3cc(CCCN4CCOCC4)ccc3c2n1CC(C)(C)O [Example 135, 1-[4-Amino-2-(ethoxymethyl)-7-(3-morpholin-4-ylpropyl)-1H-imidazo[4,5-c]quinolin-1-yl]-2-methylpropan-2-ol]
